Results reported in US6083941A, “Inhibition of NMDA receptor activity by pregnenolone sulfate derivatives” (Trustees of Boston University, priority 1998, dated 2000).
“And” between values parts separate entries of the source, which are not always exact repeats. Identical values can stand only once. Counter-ions that a name gives are not always drawn. Like-named read-outs stand apart in the source and are kept apart here.

What was measured:
Format in all cases: cell-based
NMDA receptor = test: Whole cell patch clamp, NMDA-induced current in cultured chick spinal cord neurons; conditions: for mean NMDA induced current: control cultures 121±16 pA
Protocol: Cultures of dissociated spinal cord neurons were prepared as previously described (Farb, D. H., et al., J. Cell Biol., 80:651-661 (1979)). Briefly, the dissociated cells from 7-day chick embryos were plated on collagen-coated 35-mm tissue culture dishes in Eagle's minimum essential medium supplemented with 2.4 mM glutamine, 10% (v/v) heat-inactivated horse serum, 5% (v/v) chick embryo extract and antibiotics. Cultures were maintained in a humidified atmosphere of 5% CO2, 95% air at 37°. Cytarabine (1 μM) was added to the culture medium after 36 hr. of the initial plating to inhibit the proliferation of non-neuronal cells. One day later, this medium was replaced with a similar medium supplemented with 20.5 mM glucose, 19 mM KCl, and 2.5% chick embryo extract. Fresh medium was added twice weekly. Cultured neurons were used in experiments within 2-4 weeks after plating.
Experiments were carried out in 35-mm tissue culture dishes on the stage of an inverted phase contrast microscope. Whole cell currents were recorded by the whole cell variant of the patch clamp technique (Hamill, O. P., et al., Pfagers Arch. 891:85-100 (1981)). Patch electrodes had tip openings of about […] and resistances of 3-8 M.OMEGA. using an intracellular solution comprised of the following (in mM): 140 CsCl, 11 EGTA, and 10 HEPES (pH adjusted to 7.2 with CsOH). In experiments in which a high concentration of glycine was used, the intracellular solution was replaced with a low chloride (10 mM) pipette solution. This solution contained the following (in mM): 140 potassium gluconate, 10 KCl, 8 sodium gluconate, 11 EGTA, and 10 HEPES (pH adjusted to 7.2 with KOH). To prevent a marked run-down of NMDA-induced current at high NMDA concentrations, 4 mM potassium ATP was included in the intracellular solution. The bath solution contained the following (in mM): 150 NaCl, 4 KCl, 1 CaCl2, and 10 HEPES (pH adjusted to 7.2 with NaOH). No glycine was added to the solutions containing NMDA, because no additional glycine was required to obtain a robust NMDA response, and there was no effect of a maximal concentration (10 μM) of glycine on 5β3αS inhibition of the NMDA response. All experiments were performed at room temperature (23-25° C.).
Recordings were made using an Axopatch 1B patch clamp apparatus (Axon Instruments, Burlingame, Calif.). Cells with series resistances greater than 10 M.OMEGA. were rejected. After partial compensation, series resistances were between 3.5 and 6 M.OMEGA.. The holding potential was maintained at -70 mV unless otherwise noted. Currents were filtered at 1 kHz using an eight-pole Bessel filter (-3 dB) and digitized ([…]) using an on-line data acquisition system (pClamp, Axon Instruments).
Drug solutions were applied to single neurons by pressure ejection (15 psi) from seven-barrel pipettes. Seven-barrel pressure pipettes were positioned approximately […] from the neuronal soma. Under these conditions, the drug solution in the pressure pipette rapidly and effectively replaces the solution surrounding the target neurons with less than 10% dilution (Choi, D. W., et al., Nature (Lond.) 269:342-344 (1977); Chan, C. Y., et al., Life Sci., 83:2061-2069 (1983); Chan, C. Y. and Farb, D. H., J. Neurosci., 5:2365-2373 (1985)). All drugs were obtained from Sigma, with the except of AMPA hydrobromide (Research Biochemicals) and steroids (Steraloids). Stock solutions of steroids were prepared in dimethyl sulfoxide, the final concentration of which was 0.5% (v/v). To obviate the possible effects of dimethyl sulfoxide on the relevant agonist-induced currents, all other drug solutions including NMDA, kainate, AMPA and external buffer (in the pressure pipette) also contained 0.5% dimethyl sulfoxide. […]

[1] = system: NMDA-induced cell death in primary neuronal cultures of rat hippocampal formation; test: Trypan blue exclusion, NMDA-induced cell death (excitotoxicity) in primary hippocampal cultures; conditions: Rattus norvegicus, 200 μM 17β-estradiol hemisuccinate
Source text: Trypan blue exclusion was used to evaluate the ability of derivatives of pregnenolone sulfate to inhibit NMDA-induced cell death in primary neuronal cultures of rat hippocampal formation.
Mixed neuronal and glial cultures of hippocampal tissue were derived from fetal rats on day 18 of embryonic development and were maintained in culture for 16 to 24 days (Brewer, G. J., Brain Res., 494: 65-74 (1989)). Care for the animals used in this study was in accordance with institutional guidelines. Hippocampal tissue from Sprague-Dawley rat pups was collected immediately following removal from dams sacrificed with CO2 on embryonic day 18. Cells were dissociated by trituration in Ca^2 +/Mg^2 + free Hank's basic salt solution supplemented with 4.2 mM bicarbonate, 1 mM sodium pyruvate, 20 mM HEPES, 3 mg/ml BSA, and pelleted by centrifugation (900 rpm, 3 min). The resulting pellet was suspended in DMEM supplemented with 2.4 mg/ml BSA, 26.5 mM sodium bicarbonate, 1 mM sodium pyruvate, 20 mM HEPES, 10% FBS, 100 units/ml penicillin, 100 μg/ml streptomycin, and a modification of Brewers B16 defined components (with […] vitamin B12 and without catalase, glutathione, and superoxide dismutase) (Pike, C. J., et al., Neurosci. 13:1676-87 (1993)) and plated onto poly-L-lysine coated 24 well culture dishes (Nunclon) at a density of 15,000 cells/cm^2 and were maintained in a humidified incubator in 5% CO2 /95% air at 37° C. After 5 days in vitro, nonneuronal cell division was inhibited by exposure to 2×10^-6 M cytosine arabinoside for 48 hrs. Cells were subsequently maintained in medium identical to that used for platting without BSA or FBS.
The number of living neurons was determined by assessing the ability of cells to exclude trypan blue 16 hrs. after the addition of drug solutions to the medium of individual culture wells (Dawson, V. L., et al., Proc. Natl. Acad. Sci. USA, 88:6368-6371 (1991)). Drugs were introduced to cultures in 100 μl of conditioned media, collected from experimental cultures just prior to treatment, to a final volume of 0.5 ml. NMDA was dissolved in DMEM at concentrations of 0-5 mM so that addition of 10 μl yielded final concentrations of 0-100 μM. MK-801, a positive control, was dissolved in DMEM at a concentration of 1 mM so that addition of 5 μl yielded a final concentration of 10 μM. Control cultures were exposed only to an equivalent volume of DMEM, and concentration of DMSO (0.5%). The concentrations of the pregnenolone sulfate derivatives were as follows: 10-100 μM 5β3αS, 100 μM 5β3α hemisuccinate and 200 μM 17β-estradiol hemisuccinate.
After exposure to drugs, the medium was replaced by 0.1 M sodium phosphate buffer/0.4% trypan blue. Cell death was assessed by counting the number of trypan blue positive and negative neurons in five high power fields per culture well with an inverted phase contrast microscope using both bright field and phase settings. Cell death is expressed as the ratio of the number of trypan blue positive to total number of cells counted in each well×100 (percent cell death).

[2] = system: glutamate receptor-mediated spontaneous EPSCs in rat hippocampal neurons; test: Spontaneous excitatory postsynaptic currents (EPSCs), whole-cell recording in cultured hippocampal neurons
Protocol: Primary cultures of hippocampal neurons were prepared from embryonic day 18 rats. Cultured neurons were used in experiments 2-3 weeks after plating.
Spontaneous excitatory postsynaptic currents were recorded by the whole-cell variant of the patch clamp technique. The pipet solution usually contained (in mM) KCl 10, EGTA 11, sodium gluconate 3, potassium gluconate 140 and HEPES 10, adjusted to pH 7.2 with KOH. The bath solution contained (in mM) NaCl 150, KCl 4, CaCl2 1, and HEPES 10, adjusted to pH 7.2 with NaOH. Because NMDA-induced currents are subject to voltage-dependent block by extracellular Mg^2+, no magnesium salts were added to the bath solution. All records were made with the cell membrane potential clamped at -70 mV, which is very close to the Cl- equilibrium potential. Therefore, IPSCs are not expected to be observed and spontaneous activity should consist of EPSCs. The complete blockage of spontaneous activity by the co-application of the NMDA receptor antagonist APV and the non-NMDA receptor antagonist DNQX argues that the observed spontaneous activity is glutamate receptor-mediated.
Drug solutions were applied to single neurons by pressure ejection (15 psi) from 7-barrel pipets (tip opening ~3-5 μm) positioned ~50 μm from the neuronal soma. In all experiments, neurons received a 40s application of either steroid or steroid plus antagonist(s), followed by 10-20s pulse of external buffer solution.

[3] = target: T1, recombinant NMDA receptors (NR1100 and NR2A subunits) (Rattus norvegicus, UniProt P35439+Q00959); test: Two electrode voltage-clamp of Xenopus oocytes expressing recombinant NMDA receptors
T1 construct: expressed in transfected cells; host or cells: Xenopus laevis oocytes injected with in vitro transcribed mRNA
Protocol: RNA preparation. mRNA were prepared through in vitro transcription of NR1100 and NR2A cDNAs using the mMessage mMachine kit (Ambion, Tex.). NR1100 and NR2A clones were kindly provided by Dr. Zukin and Dr. Nakanishie.
Xenopus expression system. Female, oocyte positive Xenopus laevis frogs were purchased from Nasco, Inc. (WI). The frogs were kept on a 12/12 light-dark cycle and maintained on a diet of chopped calf liver every 3 days. Prior to surgery, frogs were anesthetized in a 0.15% Tricaine solution (Sigma, Mo.) for 30-45 minutes. Ovarian sections containing the follicular oocytes were removed through a lateral abdominal incision and were immediately placed in calcium-free ND96 solution (in mM):96 NaCl; 1 MgCl2; 2 KCl; 5 Hepes; 2.5 pyruvate (pH adjusted to 7.4 with NaOH). Following a 2 hr. incubation in 0.2% collagenase type II (Sigma, Mo.) at room temperature, individual defolliculated oocytes were transferred into 60×15 mm glass petri dishes containing ND96 solution (in mM): 96 NaCl; 1 MgCl2; 2 KCl; 1.8 CaCl2; 5 Hepes; 2.5 pyruvate (pH adjusted to 7.4 with NaOH). The isolated oocytes were maintained in an incubator at 18° C. On the following date, batches of 20-40 selected oocytes (Dumont stage V and VI) were injected with 50 nl of prepared RNA solution (0.5 ng of NR1 and 12 ng of NR2A mRNAs per oocyte) using an electronic microinjector (Drummond, Pa.). The injected oocytes were used for electrophysiological experiments following 4-10 day incubation at 18° C.
Electrical recording and drug application. The ion current recordings were obtained in two electrodes voltage-clamp mode using an Axoclamp-2A amplifier (Axon Instruments, Inc., CA). The microelectrodes were fabricated with a programmed puller (Sutter Instrument Co., CA) from glass capillaries (Dagan, Minn.) and filled with 3M KCl solution. The resistance of filled microelectrodes was in the range of 2.5-3.5 M.OMEGA.. The oocytes were clamped at a holding potential of -70 mV. The membrane current was filtered at 500 Hz and sampled at 100 Hz frequency. The drugs were applied using a gravity driven external perfusion system. The data acquisition and external perfusion control were done using SuperScopeII software package (GW Instruments, MA). All experiments were performed at room temperature of 22-24° C.
The degree of modulation of the amino acid response by steroids, the percent change, was defined at (I'/I-1)×100%, where I and I' are respectively the agonist-induced currents in the absence and presence of steroid. Throughout, results are expressed as mean±SEM; statistical comparison of groups was carried out using Student's t test.

T1 sequence (Q00959 23-1464, other chains not shown): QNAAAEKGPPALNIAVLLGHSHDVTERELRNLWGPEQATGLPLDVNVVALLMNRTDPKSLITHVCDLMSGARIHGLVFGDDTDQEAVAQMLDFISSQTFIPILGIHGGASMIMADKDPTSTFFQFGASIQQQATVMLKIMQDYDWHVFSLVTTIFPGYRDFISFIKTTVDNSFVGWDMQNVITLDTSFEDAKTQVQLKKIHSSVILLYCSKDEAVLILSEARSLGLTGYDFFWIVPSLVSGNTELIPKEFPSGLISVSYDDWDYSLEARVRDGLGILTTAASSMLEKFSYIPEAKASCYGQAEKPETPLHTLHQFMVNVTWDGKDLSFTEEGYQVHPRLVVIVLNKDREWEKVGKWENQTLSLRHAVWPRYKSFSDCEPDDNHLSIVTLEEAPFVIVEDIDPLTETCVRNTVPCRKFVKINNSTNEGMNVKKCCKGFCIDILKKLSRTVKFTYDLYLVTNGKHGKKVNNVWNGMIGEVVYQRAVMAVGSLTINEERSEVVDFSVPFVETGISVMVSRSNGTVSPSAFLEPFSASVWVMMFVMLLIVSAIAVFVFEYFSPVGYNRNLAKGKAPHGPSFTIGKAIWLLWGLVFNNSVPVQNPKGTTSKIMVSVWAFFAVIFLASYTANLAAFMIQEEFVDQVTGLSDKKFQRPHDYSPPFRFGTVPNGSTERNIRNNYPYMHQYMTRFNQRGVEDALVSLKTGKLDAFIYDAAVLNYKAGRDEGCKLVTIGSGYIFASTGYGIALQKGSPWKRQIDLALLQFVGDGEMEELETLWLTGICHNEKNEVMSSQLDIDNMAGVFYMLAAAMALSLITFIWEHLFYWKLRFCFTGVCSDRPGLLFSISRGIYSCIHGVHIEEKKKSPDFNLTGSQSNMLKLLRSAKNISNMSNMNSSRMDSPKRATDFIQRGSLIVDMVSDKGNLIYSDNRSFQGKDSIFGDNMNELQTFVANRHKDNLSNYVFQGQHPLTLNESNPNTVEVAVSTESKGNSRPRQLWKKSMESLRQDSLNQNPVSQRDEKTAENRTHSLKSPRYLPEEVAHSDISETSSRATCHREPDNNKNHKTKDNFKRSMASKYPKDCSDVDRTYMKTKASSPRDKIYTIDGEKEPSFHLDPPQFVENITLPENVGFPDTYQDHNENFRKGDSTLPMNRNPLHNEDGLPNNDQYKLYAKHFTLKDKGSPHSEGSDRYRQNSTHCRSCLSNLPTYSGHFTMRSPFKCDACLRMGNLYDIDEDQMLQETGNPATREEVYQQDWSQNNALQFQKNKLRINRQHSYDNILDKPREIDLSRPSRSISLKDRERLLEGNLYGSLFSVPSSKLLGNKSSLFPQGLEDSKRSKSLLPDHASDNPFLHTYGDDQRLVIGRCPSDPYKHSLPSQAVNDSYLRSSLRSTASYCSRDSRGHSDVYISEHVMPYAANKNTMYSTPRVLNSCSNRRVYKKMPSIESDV

CCCCC/C=C\C/C=C\C/C=C\C/C=C\CCCC(=O)O [arachidonic acid, reference compound]
potentiation of the 30 μM NMDA response (NMDA receptor; 10 μM arachidonic acid alone): 120±35%
potentiation of the NMDA response (NMDA receptor; 10 μM arachidonic acid in the presence of 100 μM PS): 158±22%

C[C@]12CC[C@@H]3c4ccc(OC(=O)CCC(=O)O)cc4CC[C@H]3[C@@H]1CC[C@@H]2O [17β-estradiol hemisuccinate]
inhibition at 200 µM ([1]; read-out: inhibition of the cell death induced by chronic NMDA): 40%
inhibition at 200 µM ([1]; read-out: inhibition of the cell death produced by short term exposure to NMDA): 65%

C[C@]12CC[C@H](OS(=O)(=O)O)CC1=CC[C@@H]1[C@@H]2CC[C@]2(C)C(=O)CC[C@@H]12 [DHEAS, Dehydroepiandrosterone sulfate, reference compound]
potentiation of the NMDA response (NMDA receptor; concentration not in the sentence (100 μM in Table 1)): 28.8±8.8% and 28.8%

CCN1C(=O)C=CC1=O [NEM, N-ethylmaleimide, reference compound]
mean NMDA induced current (NMDA receptor; 5 min 4 mM DTT, then 2 min 4 mM DTT plus 300 μM NEM): 367±82 pA

NCCCNCCCCNCCCN [spermine, reference compound]
potentiation of the NMDA induced current (NMDA receptor; 100 μM spermine (maximal)): 136±33%
potentiation of the NMDA induced current (NMDA receptor; 250 μM spermine): 67±21%

O[C@H](CS)[C@H](O)CS (racemic) [DTT, dithiothreitol, reference compound]
NMDA current, % of control (NMDA receptor; 4 mM DTT, after 180 seconds of exposure): 273±19%
mean NMDA induced current (NMDA receptor; after approximately an hour of exposure to 4 mM DTT): 326±82 pA

CC(=O)[C@H]1CC[C@H]2[C@@H]3CC=C4C[C@@H](OS(=O)(=O)O)CC[C@]4(C)[C@H]3C(=O)C[C@]12C [11-keto PS]
activation at 100 µM ([2]; Rattus norvegicus, Hippocampal neuron, 100 μM steroid, read-out: percentage potentiation of EPSCs): 19 ± 15%
effect on spontaneous EPSCs ([2]; cultures of rat hippocampal neurons): has no effect on EPSCs

CN[C@H](CC(=O)O)C(=O)O [NMDA, N-methyl-D-aspartate]
EC50 [3]: 62 ± 4 µM
NMDA nH (NMDA receptor; in the absence of 5β3αS): 1.01
NMDA Imax (NMDA receptor; in the absence of 5β3αS, normalized to the peak current induced by 100 μM NMDA): 2.56
EC50 (NMDA receptor; read-out: NMDA EC50, in the absence of 5β3αS): 156 µM

CC(=O)[C@H]1CC[C@H]2[C@@H]3CC[C@H]4C[C@@H](OS(=O)(=O)O)CC[C@]4(C)[C@H]3CC[C@]12C [5α3βS, 5α-pregnan-3β-ol-20-one sulfate, reference compound]
inhibition of the NMDA-induced current (NMDA receptor; steroid concentration not given): 1±2.6%
